Test results taken from ChEMBL document CHEMBL1177794, “Broad spectrum alkynyl inhibitors of T315I Bcr-Abl” (Bioorg Med Chem Lett, 2010).

Legend:
[1] = test system: Tyrosine-protein kinase ABL1 (Homo sapiens), P00519 [T315I]; test: Inhibition of phosphorylated ABL1 T315I mutant at 10 uM; conditions: values are per cent of control
[2] = target: Tyrosine-protein kinase ABL1 (Homo sapiens) (UniProt P00519); test: Inhibition of phosphorylated ABL1 at 10 uM; conditions: values are per cent of control
[3] = target: Activin receptor type-1-like (Homo sapiens) (UniProt P37023); test: Inhibition of ACVRL1 at 10 uM; conditions: values are per cent of control
[4] = target: Atypical kinase COQ8A, mitochondrial (Homo sapiens) (UniProt Q8NI60); test: Inhibition of ADCK3 at 10 uM; conditions: values are per cent of control
[5] = target: Protein-tyrosine kinase 6 (Homo sapiens) (UniProt Q13882); test: Inhibition of BRK at 10 uM; conditions: values are per cent of control
Protein-tyrosine kinase 6 (Homo sapiens), sequence (Q13882 whole entry, looked up): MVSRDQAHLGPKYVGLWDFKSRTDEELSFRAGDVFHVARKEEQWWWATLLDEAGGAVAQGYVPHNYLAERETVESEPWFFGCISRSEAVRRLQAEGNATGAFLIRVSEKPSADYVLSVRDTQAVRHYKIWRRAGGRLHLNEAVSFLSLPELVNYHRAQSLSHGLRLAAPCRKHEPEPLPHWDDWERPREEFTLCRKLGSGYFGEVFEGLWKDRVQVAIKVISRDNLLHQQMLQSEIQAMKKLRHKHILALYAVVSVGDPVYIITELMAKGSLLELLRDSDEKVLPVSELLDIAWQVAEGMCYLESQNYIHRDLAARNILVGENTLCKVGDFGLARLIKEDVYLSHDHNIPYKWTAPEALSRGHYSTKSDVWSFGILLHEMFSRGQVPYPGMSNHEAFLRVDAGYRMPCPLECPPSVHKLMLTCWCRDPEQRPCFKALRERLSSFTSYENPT

[6] = target: Calcium/calmodulin-dependent protein kinase type 1 (Homo sapiens) (UniProt Q14012); test: Inhibition of CAMK1 at 10 uM; conditions: values are per cent of control
[7] = target: Calcium/calmodulin-dependent protein kinase type II subunit alpha (Homo sapiens) (UniProt Q9UQM7); test: Inhibition of CAMK2A at 10 uM; conditions: values are per cent of control
[8] = target: Calcium/calmodulin-dependent protein kinase type II subunit beta (Homo sapiens) (UniProt Q13554); test: Inhibition of CAMK2B at 10 uM; conditions: values are per cent of control
[9] = target: Cyclin-dependent kinase 11A (Homo sapiens) (UniProt Q9UQ88); test: Inhibition of CDC2L2 at 10 uM; conditions: values are per cent of control
Cyclin-dependent kinase 11A (Homo sapiens), sequence (Q9UQ88 whole entry): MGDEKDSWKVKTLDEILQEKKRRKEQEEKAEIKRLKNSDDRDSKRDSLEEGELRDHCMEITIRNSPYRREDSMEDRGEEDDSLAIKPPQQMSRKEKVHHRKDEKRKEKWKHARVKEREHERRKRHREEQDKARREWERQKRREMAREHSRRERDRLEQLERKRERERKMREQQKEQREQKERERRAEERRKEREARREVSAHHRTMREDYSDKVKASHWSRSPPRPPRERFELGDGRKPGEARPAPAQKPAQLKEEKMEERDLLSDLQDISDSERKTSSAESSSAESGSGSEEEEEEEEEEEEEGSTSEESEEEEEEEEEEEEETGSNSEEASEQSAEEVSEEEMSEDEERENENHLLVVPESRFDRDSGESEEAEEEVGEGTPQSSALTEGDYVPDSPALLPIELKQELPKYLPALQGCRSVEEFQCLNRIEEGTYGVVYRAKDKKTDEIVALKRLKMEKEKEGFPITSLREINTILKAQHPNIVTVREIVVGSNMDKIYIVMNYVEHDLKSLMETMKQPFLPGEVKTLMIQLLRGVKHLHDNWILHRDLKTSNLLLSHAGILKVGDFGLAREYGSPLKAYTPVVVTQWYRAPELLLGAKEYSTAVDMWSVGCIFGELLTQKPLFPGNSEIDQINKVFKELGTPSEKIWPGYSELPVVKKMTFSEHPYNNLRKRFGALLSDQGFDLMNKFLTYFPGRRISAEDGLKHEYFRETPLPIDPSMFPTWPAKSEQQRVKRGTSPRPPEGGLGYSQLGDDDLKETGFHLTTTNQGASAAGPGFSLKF

[10] = target: Myotonin-protein kinase (Homo sapiens) (UniProt Q09013); test: Inhibition of DMPK at 10 uM; conditions: values are per cent of control
[11] = target: Serine/threonine-protein kinase/endoribonuclease IRE1 (Homo sapiens) (UniProt O75460); test: Inhibition of ERN1 at 10 uM; conditions: values are per cent of control
Serine/threonine-protein kinase/endoribonuclease IRE1 (Homo sapiens), sequence (O75460 19-977 limits assumed): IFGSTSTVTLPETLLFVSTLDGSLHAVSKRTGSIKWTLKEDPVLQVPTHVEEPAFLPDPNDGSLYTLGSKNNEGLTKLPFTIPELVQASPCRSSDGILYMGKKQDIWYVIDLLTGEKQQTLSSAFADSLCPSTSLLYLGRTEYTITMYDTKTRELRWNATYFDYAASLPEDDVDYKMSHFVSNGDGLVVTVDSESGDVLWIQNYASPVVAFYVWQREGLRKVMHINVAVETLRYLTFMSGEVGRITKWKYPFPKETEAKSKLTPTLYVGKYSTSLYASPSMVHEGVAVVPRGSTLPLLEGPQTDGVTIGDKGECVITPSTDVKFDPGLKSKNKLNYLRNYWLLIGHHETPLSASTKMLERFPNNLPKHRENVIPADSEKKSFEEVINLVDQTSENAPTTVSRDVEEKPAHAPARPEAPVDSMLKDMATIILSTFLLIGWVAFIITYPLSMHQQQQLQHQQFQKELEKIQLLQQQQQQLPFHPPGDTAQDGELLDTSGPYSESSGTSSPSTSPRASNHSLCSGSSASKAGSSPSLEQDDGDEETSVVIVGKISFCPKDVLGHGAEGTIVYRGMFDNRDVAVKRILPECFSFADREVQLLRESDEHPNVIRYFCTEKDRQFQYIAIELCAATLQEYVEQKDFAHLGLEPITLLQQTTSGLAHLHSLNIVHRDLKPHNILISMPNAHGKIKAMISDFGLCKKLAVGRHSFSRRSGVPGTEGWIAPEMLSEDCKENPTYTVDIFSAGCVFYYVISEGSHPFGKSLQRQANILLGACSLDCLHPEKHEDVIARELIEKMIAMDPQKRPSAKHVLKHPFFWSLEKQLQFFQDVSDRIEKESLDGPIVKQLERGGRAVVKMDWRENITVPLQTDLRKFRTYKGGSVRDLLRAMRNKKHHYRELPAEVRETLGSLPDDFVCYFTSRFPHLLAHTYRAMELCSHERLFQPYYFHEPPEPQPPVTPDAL

[12] = target: Focal adhesion kinase 1 (Homo sapiens) (UniProt Q05397); test: Inhibition of FAK at 10 uM; conditions: values are per cent of control
[13] = target: Mitogen-activated protein kinase kinase kinase kinase 1 (Homo sapiens) (UniProt Q92918); test: Inhibition of HPK1 at 10 uM; conditions: values are per cent of control
[14] = target: Serine/threonine-protein kinase ICK (Homo sapiens) (UniProt Q9UPZ9); test: Inhibition of ICK at 10 uM; conditions: values are per cent of control
[15] = test system: Mast/stem cell growth factor receptor Kit (Homo sapiens), P10721 [D816H]; test: Inhibition of KIT D816H mutant at 10 uM; conditions: values are per cent of control
Mast/stem cell growth factor receptor Kit (Homo sapiens), P10721 [D816H], sequence (P10721 whole entry D816H): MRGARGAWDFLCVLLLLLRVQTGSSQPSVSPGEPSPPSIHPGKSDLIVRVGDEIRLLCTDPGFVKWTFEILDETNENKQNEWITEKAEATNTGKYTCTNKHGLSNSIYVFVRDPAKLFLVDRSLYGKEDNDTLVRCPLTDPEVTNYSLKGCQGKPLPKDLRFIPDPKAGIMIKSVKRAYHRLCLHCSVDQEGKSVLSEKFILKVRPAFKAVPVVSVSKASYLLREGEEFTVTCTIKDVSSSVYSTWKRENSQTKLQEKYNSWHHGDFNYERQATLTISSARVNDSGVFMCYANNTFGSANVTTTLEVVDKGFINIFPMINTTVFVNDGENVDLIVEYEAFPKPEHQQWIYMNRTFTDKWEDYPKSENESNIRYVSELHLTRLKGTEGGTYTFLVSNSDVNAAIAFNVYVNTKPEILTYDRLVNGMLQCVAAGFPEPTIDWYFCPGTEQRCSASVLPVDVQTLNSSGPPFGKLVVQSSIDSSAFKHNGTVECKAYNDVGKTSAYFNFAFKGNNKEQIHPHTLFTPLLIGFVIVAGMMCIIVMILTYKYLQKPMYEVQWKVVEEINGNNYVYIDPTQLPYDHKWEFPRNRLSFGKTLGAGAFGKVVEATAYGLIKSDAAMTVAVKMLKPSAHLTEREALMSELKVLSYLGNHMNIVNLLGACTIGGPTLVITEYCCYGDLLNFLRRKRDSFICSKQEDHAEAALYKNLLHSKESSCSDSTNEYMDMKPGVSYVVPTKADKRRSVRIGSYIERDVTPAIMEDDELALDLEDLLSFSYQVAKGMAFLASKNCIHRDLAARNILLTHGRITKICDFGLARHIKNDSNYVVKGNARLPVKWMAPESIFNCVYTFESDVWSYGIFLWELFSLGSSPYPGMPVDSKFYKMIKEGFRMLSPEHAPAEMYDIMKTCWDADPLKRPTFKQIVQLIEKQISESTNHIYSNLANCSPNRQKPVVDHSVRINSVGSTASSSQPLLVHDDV

[16] = test system: Mast/stem cell growth factor receptor Kit (Homo sapiens), P10721 [V559D,T670I]; test: Inhibition of KIT V559D, T670I mutant at 10 uM; conditions: values are per cent of control
Mast/stem cell growth factor receptor Kit (Homo sapiens), P10721 [V559D,T670I], sequence (P10721 whole entry V559D/T670I, the tested form may be a part): as the sequence (P10721 whole entry D816H) above, with V559D, T670I, H816D counted along it

[17] = target: LIM domain kinase 1 (Homo sapiens) (UniProt P53667); test: Inhibition of LIMK1 at 10 uM; conditions: values are per cent of control
[18] = target: Serine/threonine-protein kinase STK11 (Homo sapiens) (UniProt Q15831); test: Inhibition of LKB1 at 10 uM; conditions: values are per cent of control
[19] = target: MAP kinase-activated protein kinase 5 (Homo sapiens) (UniProt Q8IW41); test: Inhibition of MAPKAPK5 at 10 uM; conditions: values are per cent of control
MAP kinase-activated protein kinase 5 (Homo sapiens), sequence (Q8IW41 whole entry): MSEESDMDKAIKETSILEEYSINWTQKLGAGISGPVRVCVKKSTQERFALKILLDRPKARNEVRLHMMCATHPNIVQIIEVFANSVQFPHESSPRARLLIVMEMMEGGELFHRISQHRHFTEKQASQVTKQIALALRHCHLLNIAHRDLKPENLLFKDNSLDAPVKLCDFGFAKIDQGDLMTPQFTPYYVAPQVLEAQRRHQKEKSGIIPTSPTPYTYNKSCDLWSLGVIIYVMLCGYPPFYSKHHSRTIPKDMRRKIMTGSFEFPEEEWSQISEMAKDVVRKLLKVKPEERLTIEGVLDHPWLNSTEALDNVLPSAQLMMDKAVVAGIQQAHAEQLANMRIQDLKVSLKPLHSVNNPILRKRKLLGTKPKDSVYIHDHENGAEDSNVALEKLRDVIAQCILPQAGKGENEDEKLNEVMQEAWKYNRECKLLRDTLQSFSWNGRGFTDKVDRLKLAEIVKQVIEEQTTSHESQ

[20] = target: Serine/threonine-protein kinase Nek5 (Homo sapiens) (UniProt Q6P3R8); test: Inhibition of NEK5 at 10 uM
[21] = target: Tyrosine-protein kinase Srms (Homo sapiens) (UniProt Q9H3Y6); test: Inhibition of SRMS at 10 uM
[22] = target: Serine/threonine-protein kinase 16 (Homo sapiens) (UniProt O75716); test: Inhibition of STK16 at 10 uM
[23] = target: Serine/threonine-protein kinase TAO2 (Homo sapiens) (UniProt Q9UL54); test: Inhibition of TAOK2 at 10 uM
Serine/threonine-protein kinase TAO2 (Homo sapiens), sequence (Q9UL54 whole entry): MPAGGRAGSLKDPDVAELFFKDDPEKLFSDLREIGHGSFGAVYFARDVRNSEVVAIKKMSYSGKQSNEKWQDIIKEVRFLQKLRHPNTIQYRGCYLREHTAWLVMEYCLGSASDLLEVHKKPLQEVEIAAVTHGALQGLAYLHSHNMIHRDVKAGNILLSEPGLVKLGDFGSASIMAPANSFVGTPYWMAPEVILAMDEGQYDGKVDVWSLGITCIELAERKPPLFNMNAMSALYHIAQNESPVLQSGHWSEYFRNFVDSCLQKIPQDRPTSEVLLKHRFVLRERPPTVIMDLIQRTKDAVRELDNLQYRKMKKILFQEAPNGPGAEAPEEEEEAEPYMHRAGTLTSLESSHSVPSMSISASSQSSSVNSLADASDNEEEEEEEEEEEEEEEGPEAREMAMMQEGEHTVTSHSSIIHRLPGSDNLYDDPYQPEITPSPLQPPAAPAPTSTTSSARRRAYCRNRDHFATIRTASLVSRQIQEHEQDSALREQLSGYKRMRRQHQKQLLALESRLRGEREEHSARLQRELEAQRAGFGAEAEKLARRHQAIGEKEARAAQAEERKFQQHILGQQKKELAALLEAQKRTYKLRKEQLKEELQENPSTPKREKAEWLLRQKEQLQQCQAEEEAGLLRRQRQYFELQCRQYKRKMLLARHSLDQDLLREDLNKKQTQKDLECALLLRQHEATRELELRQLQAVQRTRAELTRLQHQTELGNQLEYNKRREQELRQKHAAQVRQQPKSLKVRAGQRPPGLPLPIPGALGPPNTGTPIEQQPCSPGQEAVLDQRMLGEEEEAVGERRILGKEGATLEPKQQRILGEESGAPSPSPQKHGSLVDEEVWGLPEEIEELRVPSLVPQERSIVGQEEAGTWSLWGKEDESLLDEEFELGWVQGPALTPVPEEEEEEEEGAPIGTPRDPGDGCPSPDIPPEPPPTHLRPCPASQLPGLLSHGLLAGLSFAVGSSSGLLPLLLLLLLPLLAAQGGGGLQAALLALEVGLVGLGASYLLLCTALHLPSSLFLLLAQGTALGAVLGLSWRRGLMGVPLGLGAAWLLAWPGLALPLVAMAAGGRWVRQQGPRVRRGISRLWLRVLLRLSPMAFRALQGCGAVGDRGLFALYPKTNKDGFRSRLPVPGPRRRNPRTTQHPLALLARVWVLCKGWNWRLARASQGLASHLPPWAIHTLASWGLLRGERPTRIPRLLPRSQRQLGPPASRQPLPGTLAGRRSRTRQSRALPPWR

[24] = target: Activated CDC42 kinase 1 (Homo sapiens) (UniProt Q07912); test: Inhibition of TNK2 at 10 uM; conditions: values are per cent of control
[25] = target: Non-receptor tyrosine-protein kinase TYK2 (Homo sapiens) (UniProt P29597); test: Inhibition of TYK2 JH1 catalytic domain at 10 uM; conditions: values are per cent of control
[26] = target: Serine/threonine-protein kinase 32B (Homo sapiens) (UniProt Q9NY57); test: Inhibition of YANK2 at 10 uM; conditions: values are per cent of control
[27] = test system: Phosphatidylinositol 4,5-bisphosphate 3-kinase catalytic subunit alpha isoform (Homo sapiens), P42336 [C420R]; test: Inhibition of PIK3CA C420R mutant at 10 uM
[28] = target: cAMP-dependent protein kinase catalytic subunit beta (Homo sapiens) (UniProt P22694); test: Inhibition of PKAC-beta at 10 uM; conditions: values are per cent of control
[29] = target: Serine/threonine-protein kinase D1 (Homo sapiens) (UniProt Q15139); test: Inhibition of PRKD1 at 10 uM
[30] = target: Interferon-induced, double-stranded RNA-activated protein kinase (Homo sapiens) (UniProt P19525); test: Inhibition of PRKR at 10 uM
[31] = target: cAMP-dependent protein kinase catalytic subunit PRKX (Homo sapiens) (UniProt P51817); test: Inhibition of PRKX at 10 uM
[32] = target: Serine/threonine-protein kinase SIK3 (Homo sapiens) (UniProt Q9Y2K2); test: Inhibition of QSK at 10 uM
[33] = target: SNF-related serine/threonine-protein kinase (Homo sapiens) (UniProt Q9NRH2); test: Inhibition of SNRK at 10 uM
[34] = target: Tyrosine-protein kinase Tec (Homo sapiens) (UniProt P42680); test: Inhibition of TEC at 10 uM; values are per cent of control
[35] = target: Epidermal growth factor receptor (Homo sapiens) (UniProt P00533); test: Inhibition of EGFR at 10 uM; values are per cent of control
[36] = target: Bone morphogenetic protein receptor type-2 (Homo sapiens) (UniProt Q13873); test: Inhibition of BMPR2 at 10 uM; values are per cent of control
[37] = target: Casein kinase I isoform epsilon (Homo sapiens) (UniProt P49674); test: Inhibition of CSNK1E at 10 uM; values are per cent of control
[38] = target: Casein kinase I isoform gamma-1 (Homo sapiens) (UniProt Q9HCP0); test: Inhibition of CSNK1G1 at 10 uM; values are per cent of control
[39] = target: Serine/threonine-protein kinase DCLK1 (Homo sapiens) (UniProt O15075); test: Inhibition of DCAMKL1 at 10 uM; values are per cent of control
[40] = target: Mitogen-activated protein kinase 13 (Homo sapiens) (UniProt O15264); test: Inhibition of p38delta at 10 uM; values are per cent of control
[41] = test system: Proto-oncogene tyrosine-protein kinase receptor Ret (Homo sapiens), P07949 [M918T]; test: Inhibition of RET M918T mutant at 10 uM; values are per cent of control
[42] = test system: Epidermal growth factor receptor (Homo sapiens), P00533 [G719S]; test: Inhibition of EGFR G719S mutant at 10 uM; values are per cent of control

CCN1CCN(Cc2ccc(NC(=O)c3ccc(C)c(C#Cc4cnc5[nH]ccc5c4)c3)cc2C(F)(F)F)CC1
residual binding, % of control [1]: 0.9% | residual binding, % of control [2]: 0.05% | residual binding, % of control [3]: 100% | residual binding, % of control [4]: 100% | residual binding, % of control [5]: 2.5% | residual binding, % of control [6]: 20% | residual binding, % of control [7]: 100% | residual binding, % of control [8]: 100% | residual binding, % of control [9]: 0% | residual binding, % of control [10]: 27% | residual binding, % of control [11]: 54% | residual binding, % of control [12]: 59% | residual binding, % of control [13]: 0.05% | residual binding, % of control [14]: 96% | residual binding, % of control [15]: 8.2% | residual binding, % of control [16]: 0% | residual binding, % of control [17]: 1.2% | residual binding, % of control [18]: 60% | residual binding, % of control [19]: 98% | inhibition [20]: 0.65% | inhibition [21]: 0.2% | inhibition [22]: 47% | inhibition [23]: 0% | residual binding, % of control [24]: 0.6% | residual binding, % of control [25]: 6.8% | residual binding, % of control [26]: 100% | inhibition [27]: 95% | residual binding, % of control [28]: 11% | inhibition [29]: 63% | inhibition [30]: 54% | inhibition [31]: 19% | inhibition [32]: 77% | inhibition [33]: 60% | % of control [34]: 0.1% | level, % of control [35]: 0.3% | level, % of control [36]: 61% | level, % of control [37]: 26% | level, % of control [38]: 100% | level, % of control [39]: 100% | % of control [40]: 2.6% | level, % of control [41]: 0% | level, % of control [42]: 0.15%

CCN1CCN(Cc2ccc(NC(=O)c3ccc(C)c(C#Cc4cccnc4)c3)cc2C(F)(F)F)CC1
residual binding, % of control [1]: 2.6% | residual binding, % of control [2]: 0% | residual binding, % of control [3]: 100% | residual binding, % of control [4]: 100% | residual binding, % of control [5]: 2.8% | residual binding, % of control [6]: 40% | residual binding, % of control [7]: 100% | residual binding, % of control [8]: 100% | residual binding, % of control [9]: 1.6% | residual binding, % of control [10]: 100% | residual binding, % of control [11]: 51% | residual binding, % of control [12]: 75% | residual binding, % of control [13]: 0.4% | residual binding, % of control [14]: 80% | residual binding, % of control [15]: 6% | residual binding, % of control [16]: 0% | residual binding, % of control [17]: 3% | residual binding, % of control [18]: 96% | residual binding, % of control [19]: 95% | inhibition [20]: 4.8% | inhibition [21]: 0% | inhibition [22]: 100% | inhibition [23]: 0.15% | residual binding, % of control [24]: 11% | residual binding, % of control [25]: 4.2% | residual binding, % of control [26]: 100% | inhibition [27]: 72% | residual binding, % of control [28]: 4.1% | inhibition [29]: 51% | inhibition [30]: 66% | inhibition [31]: 3.6% | inhibition [32]: 70% | inhibition [33]: 34% | % of control [34]: 3.7% | level, % of control [35]: 3% | level, % of control [36]: 70% | level, % of control [37]: 48% | level, % of control [38]: 100% | level, % of control [39]: 95% | % of control [40]: 2.5% | level, % of control [41]: 0% | level, % of control [42]: 2.4%
